Measurements reported in ChEMBL document CHEMBL1909046, “DrugMatrix in vitro pharmacology data”.

Experiments:
[1] = biological target: Receptor tyrosine-protein kinase erbB-2 (Homo sapiens, UniProt P04626); assay: biochemical; format: cell-based, Insect cells; conditions: insect cells;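 further: inhibition of HER2 kinase enzyme activity, measured with Poly(Glu:Tyr) as the phosphorylation substrate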
[2] = biological target: Delta-type opioid receptor (Homo sapiens, UniProt P41143); format: cell membranes, Membrane; conditions: hek293
Chain of Delta-type opioid receptor (P41143 whole entry): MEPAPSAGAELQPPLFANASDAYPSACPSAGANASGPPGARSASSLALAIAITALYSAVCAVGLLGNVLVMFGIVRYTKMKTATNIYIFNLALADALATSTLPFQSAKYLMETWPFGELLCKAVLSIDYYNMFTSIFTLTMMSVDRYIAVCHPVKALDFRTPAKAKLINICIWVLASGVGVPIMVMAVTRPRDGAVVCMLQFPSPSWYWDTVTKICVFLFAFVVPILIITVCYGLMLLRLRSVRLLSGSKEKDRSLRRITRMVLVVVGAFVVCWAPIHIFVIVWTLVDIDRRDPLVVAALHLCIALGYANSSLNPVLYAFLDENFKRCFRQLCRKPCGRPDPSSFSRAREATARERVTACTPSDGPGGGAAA

[3] = biological target: Tyrosine-protein kinase Fyn (Homo sapiens, UniProt P06241); assay: biochemical; format: cell-based, Insect cells;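 further: enzymatic inhibition of Fyn kinase activity measured with Poly(Glu:Tyr) as the phosphorylation substrate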
Chain of Tyrosine-protein kinase Fyn (P06241 whole entry): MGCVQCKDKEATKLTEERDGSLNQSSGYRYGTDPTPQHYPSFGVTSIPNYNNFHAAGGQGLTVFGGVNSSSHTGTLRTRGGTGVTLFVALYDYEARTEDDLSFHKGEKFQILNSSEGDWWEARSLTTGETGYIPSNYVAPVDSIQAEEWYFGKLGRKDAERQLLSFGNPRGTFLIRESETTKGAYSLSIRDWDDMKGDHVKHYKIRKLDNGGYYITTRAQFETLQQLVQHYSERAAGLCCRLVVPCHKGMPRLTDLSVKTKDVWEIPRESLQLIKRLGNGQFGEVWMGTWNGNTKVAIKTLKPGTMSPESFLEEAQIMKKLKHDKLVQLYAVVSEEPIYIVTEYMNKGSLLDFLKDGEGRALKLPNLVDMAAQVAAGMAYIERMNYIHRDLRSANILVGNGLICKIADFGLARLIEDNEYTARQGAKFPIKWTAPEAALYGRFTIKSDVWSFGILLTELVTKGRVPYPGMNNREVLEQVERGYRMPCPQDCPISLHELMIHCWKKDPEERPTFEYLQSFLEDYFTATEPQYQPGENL

[4] = biological target: T1, Cysteinyl leukotriene receptor 1 (Homo sapiens, UniProt Q9Y271); format: cell membranes, Membrane; conditions: cho-k1
T1 sequence (Q9Y271 whole entry): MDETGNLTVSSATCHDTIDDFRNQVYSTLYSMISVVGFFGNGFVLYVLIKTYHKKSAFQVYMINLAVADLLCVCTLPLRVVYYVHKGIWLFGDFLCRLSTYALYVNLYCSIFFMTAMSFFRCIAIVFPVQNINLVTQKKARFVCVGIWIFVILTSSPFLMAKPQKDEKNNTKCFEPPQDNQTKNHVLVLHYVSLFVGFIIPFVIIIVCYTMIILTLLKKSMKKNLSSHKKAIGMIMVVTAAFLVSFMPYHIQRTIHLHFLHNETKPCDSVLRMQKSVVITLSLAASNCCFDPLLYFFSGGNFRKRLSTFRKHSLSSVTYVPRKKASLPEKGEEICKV

[5] = biological target: 5-hydroxytryptamine receptor 2B (Homo sapiens, UniProt P41595); format: cell membranes, CHO-K1, Membrane
Chain of 5-hydroxytryptamine receptor 2B (P41595 whole entry): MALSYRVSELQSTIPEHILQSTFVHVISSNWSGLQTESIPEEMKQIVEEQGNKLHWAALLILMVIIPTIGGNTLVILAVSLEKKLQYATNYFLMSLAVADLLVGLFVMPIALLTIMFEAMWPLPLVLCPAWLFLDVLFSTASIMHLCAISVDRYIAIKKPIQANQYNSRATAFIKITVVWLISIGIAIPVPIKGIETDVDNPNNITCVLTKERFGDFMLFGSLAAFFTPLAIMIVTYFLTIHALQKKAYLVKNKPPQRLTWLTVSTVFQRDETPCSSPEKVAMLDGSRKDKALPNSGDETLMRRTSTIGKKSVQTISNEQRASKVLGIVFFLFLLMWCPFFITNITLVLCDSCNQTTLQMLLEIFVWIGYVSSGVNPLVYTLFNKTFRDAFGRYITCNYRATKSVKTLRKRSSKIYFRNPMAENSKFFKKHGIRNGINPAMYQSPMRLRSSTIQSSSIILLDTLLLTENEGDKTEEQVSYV

[6] = biological target: Protein phosphatase 3 catalytic subunit alpha (Homo sapiens, UniProt Q08209); set-up: species or system Escherichia coli;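 further: inhibition of calcineurin (PP2B) enzyme activity, measured with DiFMUP as the substrate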
Further: in other assays of this panel Not Active means under 50% inhibition at 10 µM.

| Compound | IC50 [1] | IC50 [2] | IC50 ([3]; insect cells) | IC50 [4] | IC50 ([5]; read-out: IC50) | Ki ([5]; read-out: Ki) | IC50 [6] | IC50 ([5]; cho-k1) | IC50 ([3]; read-out: IC50) | Ki [1] | Ki [2] | IC50 ([3]; insect cells, read-out: IC50) | Ki [4] | Ki ([5]; cho-k1) | Ki [6] | Ki ([3]; insect cells) |
| --- | --- | --- | --- | --- | --- | --- | --- | --- | --- | --- | --- | --- | --- | --- | --- | --- |
| CC(C)c1cccc(C(C)C)c1O [PROPOFOL] | Not Active | Not Active | Not Active | Not Active | 5.5 µM | 3.5 µM | Not Active |  |  |  |  |  |  |  |  |  |
| C[C@@H]1O[C@@H](O[C@@H]2C=C3CC[C@@H]4[C@H](CC[C@]5(C)[C@@H](c6ccc(=O)oc6)CC[C@]45O)[C@@]3(C)CC2)[C@H](O)[C@H](O)[C@H]1O [PROSCILLARIDIN] | Not Active | Not Active | Not Active | Not Active |  |  | Not Active | Not Active |  |  |  |  |  |  |  |  |
| Oc1cccc(O)c1O [PYROGALLOL] | Not Active | Not Active |  | Not Active |  |  | Not Active | Not Active | 0.997 µM |  |  |  |  |  |  |  |
| AURANOFIN | Not Active | Not Active |  | Not Active |  |  | Not Active | Not Active |  | Not Active | Not Active | 1.2 µM | Not Active | Not Active | Not Active |  |
| GADOPENTETATE DIMEGLUMINE | Not Active | Not Active | Not Active | Not Active |  |  | Not Active | Not Active |  | Not Active | Not Active |  | Not Active | Not Active | Not Active | Not Active |
| GENTAMICIN | Not Active | Not Active | Not Active | Not Active |  |  | Not Active | Not Active |  | Not Active | Not Active |  | Not Active | Not Active | Not Active | Not Active |
| GRAMICIDIN | Not Active | Not Active |  | Not Active |  |  | Not Active | Not Active |  | Not Active | Not Active | 3.33 µM | Not Active | Not Active | Not Active |  |
| NYSTATIN | Not Active | Not Active | Not Active | Not Active |  |  | Not Active | Not Active |  | Not Active | Not Active |  | Not Active | Not Active | Not Active | Not Active |
